According to ChEMBL document CHEMBL5649169 (ChemMedChem, 2018):

Assays:
[1] = target: Polyadenylate-binding protein 1 (Homo sapiens) (UniProt P11940); further: assay method not described here
[2] = target: Ras-related protein Rab-5B (Homo sapiens) (UniProt P61020); further: assay method not described here
[3] = target: Serine/threonine-protein kinase 10 (Homo sapiens) (UniProt O94804); further: assay method not described here
[4] = target: RuvB-like 1 (Homo sapiens) (UniProt Q9Y265); further: assay method not described here
[5] = target: Microtubule-associated protein 1B (Homo sapiens) (UniProt P46821); further: assay method not described here
Ephrin type-A receptor 3 = Ephrin type-A receptor 3 (Homo sapiens, UniProt P29320); assay: Inhibition of Nano Luc-fused full length C-terminal EPHA3 (unknown origin) expressed in HEK293T cells using NanoGlo as substrate incubated for 2 hrs in presence of tracer by NanoBRET assay; assay type: cell-based
[6] = target: Glycine--tRNA ligase (Homo sapiens) (UniProt P41250); further: assay method not described here
[7] = target: 26S proteasome regulatory subunit 7 (Homo sapiens) (UniProt P35998); further: assay method not described here
Metaxin-2 (Homo sapiens) = Metaxin-2 (Homo sapiens) (UniProt O75431); further: assay method not described here
[8] = target: Rho GDP-dissociation inhibitor 2 (Homo sapiens) (UniProt P52566); further: assay method not described here
[9] = target: Neuronal migration protein doublecortin (Homo sapiens) (UniProt O43602); further: assay method not described here
[10] = target: Histone H1.4 (Homo sapiens) (UniProt P10412); further: assay method not described here
[11] = target: Cullin-associated NEDD8-dissociated protein 1 (Homo sapiens) (UniProt Q86VP6); further: assay method not described here
[12] = target: ADP/ATP translocase 3 (Homo sapiens) (UniProt P12236); further: assay method not described here
[13] = target: Cytoplasmic FMR1-interacting protein 1 (Homo sapiens) (UniProt Q7L576); further: assay method not described here
[14] = target: Coatomer subunit delta (Homo sapiens) (UniProt P48444); further: assay method not described here
[15] = target: Actin-related protein 2/3 complex subunit 5 (Homo sapiens) (UniProt O15511); further: assay method not described here
[16] = target: UBX domain-containing protein 1 (Homo sapiens) (UniProt Q04323); further: assay method not described here
[17] = target: 14-3-3 protein gamma (Homo sapiens) (UniProt P61981); further: assay method not described here
[18] = target: Proliferation-associated protein 2G4 (Homo sapiens) (UniProt Q9UQ80); further: assay method not described here
[19] = target: Succinate--CoA ligase [ADP-forming] subunit beta, mitochondrial (Homo sapiens) (UniProt Q9P2R7); further: assay method not described here
[20] = target: Cathepsin D (Homo sapiens) (UniProt P07339); further: assay method not described here
[21] = target: Aspartate aminotransferase, cytoplasmic (Homo sapiens) (UniProt P17174); further: assay method not described here
[22] = target: Eukaryotic initiation factor 4A-I (Homo sapiens) (UniProt P60842); further: assay method not described here
[23] = target: Mitogen-activated protein kinase kinase kinase kinase 5 (Homo sapiens) (UniProt Q9Y4K4); further: assay method not described here
[24] = target: Neutral amino acid transporter B(0) (Homo sapiens) (UniProt Q15758); further: assay method not described here
[25] = target: Poly(U)-binding-splicing factor PUF60 (Homo sapiens) (UniProt Q9UHX1); further: assay method not described here
[26] = target: Protein YIPF5 (Homo sapiens) (UniProt Q969M3); further: assay method not described here
[27] = target: SUMO-conjugating enzyme UBC9 (Homo sapiens) (UniProt P63279); further: assay method not described here
[28] = target: Tubulin beta-5 chain (Homo sapiens) (UniProt P07437); further: assay method not described here
[29] = target: Cystatin-B (Homo sapiens) (UniProt P04080); further: assay method not described here
[30] = target: Hematopoietic lineage cell-specific protein (Homo sapiens) (UniProt P14317); further: assay method not described here
[31] = target: Prolyl 4-hydroxylase subunit alpha-1 (Homo sapiens) (UniProt P13674); further: assay method not described here
[32] = target: Histone H1.5 (Homo sapiens) (UniProt P16401); further: assay method not described here
[33] = target: General transcription factor II-I (Homo sapiens) (UniProt P78347); further: assay method not described here
[34] = target: Glucose-6-phosphate isomerase (Homo sapiens) (UniProt P06744); further: assay method not described here
[35] = target: Carbamoyl-phosphate synthase [ammonia], mitochondrial (Homo sapiens) (UniProt P31327); further: assay method not described here
[36] = target: Dynein light chain 1, cytoplasmic (Homo sapiens) (UniProt P63167); further: assay method not described here
[37] = target: Minor histocompatibility antigen H13 (Homo sapiens) (UniProt Q8TCT9); further: assay method not described here
[38] = target: Signal recognition particle 9 kDa protein (Homo sapiens) (UniProt P49458); further: assay method not described here
[39] = target: Large ribosomal subunit protein eL21 (Homo sapiens) (UniProt P46778); further: assay method not described here
[40] = target: Serine/threonine-protein kinase TAO2 (Homo sapiens) (UniProt Q9UL54); further: assay method not described here
[41] = target: E3 ubiquitin-protein ligase UBR4 (Homo sapiens) (UniProt Q5T4S7); further: assay method not described here
[42] = target: 28S rRNA (cytosine(4447)-C(5))-methyltransferase (Homo sapiens) (UniProt P46087); further: assay method not described here
[43] = target: Phosphorylase b kinase gamma catalytic chain, liver/testis isoform (Homo sapiens) (UniProt P15735); further: assay method not described here
Phosphorylase b kinase gamma catalytic chain, liver/testis isoform (Homo sapiens), sequence (P15735 whole entry, canonical isoform): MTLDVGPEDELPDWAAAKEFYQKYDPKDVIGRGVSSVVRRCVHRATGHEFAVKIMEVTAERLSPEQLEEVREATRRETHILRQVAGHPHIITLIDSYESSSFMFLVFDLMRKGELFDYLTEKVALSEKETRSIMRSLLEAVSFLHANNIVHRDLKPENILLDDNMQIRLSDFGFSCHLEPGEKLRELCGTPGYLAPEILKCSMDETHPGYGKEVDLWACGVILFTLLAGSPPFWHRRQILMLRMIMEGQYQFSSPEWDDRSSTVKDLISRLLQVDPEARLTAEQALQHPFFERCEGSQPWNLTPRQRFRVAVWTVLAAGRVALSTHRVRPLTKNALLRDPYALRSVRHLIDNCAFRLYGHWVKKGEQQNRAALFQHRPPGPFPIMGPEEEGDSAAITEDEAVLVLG

Poly(U)-binding-splicing factor PUF60 (Homo sapiens), sequence (Q9UHX1 whole entry): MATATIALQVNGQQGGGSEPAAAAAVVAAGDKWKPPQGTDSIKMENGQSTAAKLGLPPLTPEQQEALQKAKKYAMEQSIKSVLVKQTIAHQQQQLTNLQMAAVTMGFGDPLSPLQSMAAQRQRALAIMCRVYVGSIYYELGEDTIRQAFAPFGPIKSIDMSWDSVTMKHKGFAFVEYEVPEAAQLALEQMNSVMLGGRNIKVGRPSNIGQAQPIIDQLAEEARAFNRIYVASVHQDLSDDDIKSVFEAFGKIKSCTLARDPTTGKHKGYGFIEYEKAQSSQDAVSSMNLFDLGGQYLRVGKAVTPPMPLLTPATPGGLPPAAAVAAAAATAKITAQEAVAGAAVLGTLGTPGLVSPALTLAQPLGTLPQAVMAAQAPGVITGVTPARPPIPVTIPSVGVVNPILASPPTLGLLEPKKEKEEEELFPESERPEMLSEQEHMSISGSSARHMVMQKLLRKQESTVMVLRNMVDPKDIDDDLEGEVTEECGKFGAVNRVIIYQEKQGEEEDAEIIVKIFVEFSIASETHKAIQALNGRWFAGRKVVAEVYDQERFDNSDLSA
14-3-3 protein gamma (Homo sapiens), sequence (P61981 whole entry): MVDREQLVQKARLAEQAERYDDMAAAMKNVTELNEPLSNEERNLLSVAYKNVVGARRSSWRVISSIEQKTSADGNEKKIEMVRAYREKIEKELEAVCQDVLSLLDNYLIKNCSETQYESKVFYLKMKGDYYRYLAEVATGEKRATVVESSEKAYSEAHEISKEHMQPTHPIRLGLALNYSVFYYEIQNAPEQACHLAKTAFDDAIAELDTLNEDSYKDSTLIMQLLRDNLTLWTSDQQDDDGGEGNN
Ephrin type-A receptor 3, sequence (P29320 whole entry, the tested form may be a part): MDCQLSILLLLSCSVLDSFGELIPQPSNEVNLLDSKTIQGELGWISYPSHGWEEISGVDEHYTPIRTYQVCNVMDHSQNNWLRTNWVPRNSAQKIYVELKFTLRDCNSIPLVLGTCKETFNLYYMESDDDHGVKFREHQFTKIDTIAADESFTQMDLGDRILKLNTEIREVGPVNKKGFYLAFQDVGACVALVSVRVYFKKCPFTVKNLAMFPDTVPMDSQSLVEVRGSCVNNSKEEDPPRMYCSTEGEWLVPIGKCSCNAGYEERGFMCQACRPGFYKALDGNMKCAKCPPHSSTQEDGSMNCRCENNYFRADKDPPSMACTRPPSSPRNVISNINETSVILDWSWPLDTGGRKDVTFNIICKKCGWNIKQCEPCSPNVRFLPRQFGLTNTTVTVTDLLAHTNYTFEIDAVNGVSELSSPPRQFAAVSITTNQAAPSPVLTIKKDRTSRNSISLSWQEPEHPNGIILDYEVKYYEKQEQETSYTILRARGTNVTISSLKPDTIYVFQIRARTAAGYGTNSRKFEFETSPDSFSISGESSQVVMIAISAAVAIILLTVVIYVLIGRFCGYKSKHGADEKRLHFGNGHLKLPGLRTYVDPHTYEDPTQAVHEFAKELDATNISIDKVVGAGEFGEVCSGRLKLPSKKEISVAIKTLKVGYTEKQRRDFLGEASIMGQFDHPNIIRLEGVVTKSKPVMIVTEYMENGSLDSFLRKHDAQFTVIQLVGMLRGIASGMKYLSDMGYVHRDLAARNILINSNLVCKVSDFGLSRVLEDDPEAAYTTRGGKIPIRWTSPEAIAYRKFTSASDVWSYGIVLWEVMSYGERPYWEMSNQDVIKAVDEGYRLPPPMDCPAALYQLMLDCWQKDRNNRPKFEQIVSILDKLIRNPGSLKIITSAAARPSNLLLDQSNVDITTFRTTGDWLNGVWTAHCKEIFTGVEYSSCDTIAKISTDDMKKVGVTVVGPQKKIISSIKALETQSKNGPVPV
Cathepsin D (Homo sapiens), sequence (P07339 65-162 limits assumed): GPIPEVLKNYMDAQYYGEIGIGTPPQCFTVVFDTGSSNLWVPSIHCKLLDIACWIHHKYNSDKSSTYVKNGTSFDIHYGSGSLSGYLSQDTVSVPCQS
Cathepsin D (Homo sapiens), sequence (P07339 169-412 limits assumed): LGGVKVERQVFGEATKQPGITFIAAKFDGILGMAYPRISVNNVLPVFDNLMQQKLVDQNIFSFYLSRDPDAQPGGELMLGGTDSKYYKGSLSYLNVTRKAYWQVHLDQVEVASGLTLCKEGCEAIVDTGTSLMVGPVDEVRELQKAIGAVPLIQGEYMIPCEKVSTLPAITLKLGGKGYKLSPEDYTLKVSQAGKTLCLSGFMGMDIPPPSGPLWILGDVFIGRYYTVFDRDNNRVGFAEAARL
Signal recognition particle 9 kDa protein (Homo sapiens), sequence (P49458 whole entry): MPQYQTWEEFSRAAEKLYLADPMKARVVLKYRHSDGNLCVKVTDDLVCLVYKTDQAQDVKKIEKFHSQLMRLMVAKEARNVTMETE
Histone H1.5 (Homo sapiens), sequence (P16401 whole entry): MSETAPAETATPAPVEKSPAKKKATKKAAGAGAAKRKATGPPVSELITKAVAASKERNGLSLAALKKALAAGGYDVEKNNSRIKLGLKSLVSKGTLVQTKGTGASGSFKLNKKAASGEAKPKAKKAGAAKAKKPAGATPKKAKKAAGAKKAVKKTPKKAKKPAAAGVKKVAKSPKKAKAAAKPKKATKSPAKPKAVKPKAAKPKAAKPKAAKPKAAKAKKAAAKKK
Dynein light chain 1, cytoplasmic (Homo sapiens), sequence (P63167 whole entry): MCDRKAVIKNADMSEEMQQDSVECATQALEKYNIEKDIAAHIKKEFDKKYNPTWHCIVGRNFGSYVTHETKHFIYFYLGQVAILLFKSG
Minor histocompatibility antigen H13 (Homo sapiens), sequence (Q8TCT9 whole entry): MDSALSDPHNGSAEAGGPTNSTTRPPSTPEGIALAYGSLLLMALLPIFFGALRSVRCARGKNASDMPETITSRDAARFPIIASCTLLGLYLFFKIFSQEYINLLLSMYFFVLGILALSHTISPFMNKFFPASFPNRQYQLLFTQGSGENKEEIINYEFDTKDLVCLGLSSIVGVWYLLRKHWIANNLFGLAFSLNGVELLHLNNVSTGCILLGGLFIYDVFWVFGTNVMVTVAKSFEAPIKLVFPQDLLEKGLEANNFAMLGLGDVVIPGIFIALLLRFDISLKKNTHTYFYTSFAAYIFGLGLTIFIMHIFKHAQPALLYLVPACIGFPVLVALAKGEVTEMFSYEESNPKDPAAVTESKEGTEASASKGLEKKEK
Ras-related protein Rab-5B (Homo sapiens), sequence (P61020 whole entry): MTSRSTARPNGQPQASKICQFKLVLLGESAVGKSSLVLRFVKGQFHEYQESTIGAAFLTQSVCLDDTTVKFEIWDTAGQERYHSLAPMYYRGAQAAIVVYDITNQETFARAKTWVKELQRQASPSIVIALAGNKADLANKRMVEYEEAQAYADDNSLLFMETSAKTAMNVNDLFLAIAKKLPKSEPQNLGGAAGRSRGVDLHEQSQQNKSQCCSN
Metaxin-2 (Homo sapiens), sequence (O75431 whole entry): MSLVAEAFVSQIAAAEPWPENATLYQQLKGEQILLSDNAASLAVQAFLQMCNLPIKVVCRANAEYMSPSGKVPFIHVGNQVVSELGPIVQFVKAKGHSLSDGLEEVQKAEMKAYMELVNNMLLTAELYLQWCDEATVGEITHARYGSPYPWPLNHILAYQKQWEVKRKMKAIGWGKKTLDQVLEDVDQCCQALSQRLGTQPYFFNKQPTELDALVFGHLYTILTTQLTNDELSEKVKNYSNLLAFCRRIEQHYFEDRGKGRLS
Tubulin beta-5 chain (Homo sapiens), sequence (P07437 whole entry): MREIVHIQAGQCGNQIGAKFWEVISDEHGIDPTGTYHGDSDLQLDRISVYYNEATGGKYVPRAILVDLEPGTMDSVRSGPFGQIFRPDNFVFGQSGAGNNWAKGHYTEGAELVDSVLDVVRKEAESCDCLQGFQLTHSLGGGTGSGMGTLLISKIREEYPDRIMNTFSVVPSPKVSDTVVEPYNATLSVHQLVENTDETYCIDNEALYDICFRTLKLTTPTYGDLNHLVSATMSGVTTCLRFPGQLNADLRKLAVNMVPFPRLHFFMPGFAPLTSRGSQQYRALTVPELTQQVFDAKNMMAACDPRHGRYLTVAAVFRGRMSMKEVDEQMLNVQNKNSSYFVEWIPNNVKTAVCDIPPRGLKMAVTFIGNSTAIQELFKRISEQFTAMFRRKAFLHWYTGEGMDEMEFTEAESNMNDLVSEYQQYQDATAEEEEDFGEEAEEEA
Hematopoietic lineage cell-specific protein (Homo sapiens), sequence (P14317 whole entry): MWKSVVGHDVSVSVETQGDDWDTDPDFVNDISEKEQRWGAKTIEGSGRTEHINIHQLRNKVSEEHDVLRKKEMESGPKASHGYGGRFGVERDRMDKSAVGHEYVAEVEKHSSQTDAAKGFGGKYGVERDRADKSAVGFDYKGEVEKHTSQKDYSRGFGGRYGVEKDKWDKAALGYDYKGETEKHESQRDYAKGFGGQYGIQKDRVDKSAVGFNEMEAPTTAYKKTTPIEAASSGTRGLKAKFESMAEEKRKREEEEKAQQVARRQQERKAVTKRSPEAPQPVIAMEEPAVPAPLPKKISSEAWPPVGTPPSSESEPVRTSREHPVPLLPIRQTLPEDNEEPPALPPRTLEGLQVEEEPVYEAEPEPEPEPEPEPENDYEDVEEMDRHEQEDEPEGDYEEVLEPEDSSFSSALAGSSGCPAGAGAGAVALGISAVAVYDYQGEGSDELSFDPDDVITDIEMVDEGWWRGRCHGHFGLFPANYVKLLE
Cystatin-B (Homo sapiens), sequence (P04080 whole entry): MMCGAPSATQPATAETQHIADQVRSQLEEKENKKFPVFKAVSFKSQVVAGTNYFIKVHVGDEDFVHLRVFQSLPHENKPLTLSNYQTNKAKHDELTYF

SMILES: Cc1ccc(C(=O)Nc2cccc(C(F)(F)F)c2)cc1Nc1nc(-c2cccnc2)nc2c1cnn2C
- ED50 [1]: 3.36 µM
- ED50 [2]: 18.1 µM
- ED50 [3]: 2820 nM
- ED50 [4]: 4.25 µM
- ED50 [5]: 24.4 nM
- IC50 (Ephrin type-A receptor 3): 0.3 nM
- ED50 [6]: 0.0374 µM
- ED50 [7]: 84.1 µM
- ED50 (Metaxin-2 (Homo sapiens)): 10.1 nM
- ED50 [8]: 46.5 µM
- ED50 [9]: 0.536 µM
- ED50 [10]: 62.9 µM
- ED50 [11]: 110 nM
- ED50 [12]: 2190 nM
- ED50 [13]: 5.64 nM
- ED50 [14]: 2.38 µM
- ED50 [15]: 3.49 µM
- ED50 [16]: 30.7 µM
- ED50 [17]: 4.49 nM
- ED50 [18]: 162 µM
- ED50 [19]: 5.03 µM
- ED50 [20]: 59.3 µM
- ED50 [21]: 6.82 µM
- ED50 [22]: 0.0241 µM
- ED50 [23]: 5.17 µM
- ED50 [24]: 26.3 nM
- ED50 [25]: 11 µM
- ED50 [26]: 1940 nM
- ED50 [27]: 47.7 µM
- ED50 [28]: 2460 nM
- ED50 [29]: 6.95 µM
- ED50 [30]: 2.99e-05 mM
- ED50 [31]: 511 nM
- ED50 [32]: 4 µM
- ED50 [33]: 2770 nM
- ED50 [34]: 0.00455 mM
- ED50 [35]: 11.8 µM
- ED50 [36]: 15.5 nM
- ED50 [37]: 9.93 µM
- ED50 [38]: 0.00532 mM
- ED50 [39]: 1.64 µM
- ED50 [40]: 23.9 µM
- ED50 [41]: 3.66 nM
- ED50 [42]: 0.204 nM
- ED50 [43]: 144 nM

SMILES: Cc1ccc(C(=O)Nc2cccc(C(F)(F)F)c2)cc1Nc1nc(-c2cccnc2)nc2nn(C)cc12
- ED50 [1]: 10.7 µM
- ED50 [2]: 0.0327 µM
- ED50 [3]: 35.1 nM
- ED50 [4]: 8.41 µM
- ED50 [5]: 10 nM
- IC50 (Ephrin type-A receptor 3): 50 nM
- ED50 [6]: 17.6 µM
- ED50 [7]: 232 µM
- ED50 (Metaxin-2 (Homo sapiens)): 1770 nM
- ED50 [8]: 26.6 µM
- ED50 [9]: 9.4 µM
- ED50 [10]: 5.19 µM
- ED50 [11]: 1740 nM
- ED50 [12]: 122 nM
- ED50 [13]: 2750 nM
- ED50 [14]: 8.38 µM
- ED50 [15]: 2.93 µM
- ED50 [16]: 32.9 µM
- ED50 [17]: 680 nM
- ED50 [18]: 0.365 µM
- ED50 [19]: 2.39 µM
- ED50 [20]: 760 µM
- ED50 [21]: 0.842 µM
- ED50 [22]: 58.1 µM
- ED50 [23]: 13.4 µM
- ED50 [24]: 32 nM
- ED50 [25]: 0.00583 µM
- ED50 [26]: 59.5 nM
- ED50 [27]: 0.291 µM
- ED50 [28]: 9.05 nM
- ED50 [29]: 12.8 µM
- ED50 [30]: 3.21 mM
- ED50 [31]: 0.132 nM
- ED50 [32]: 1000 µM
- ED50 [33]: 94.5 nM
- ED50 [34]: 36.5 mM
- ED50 [35]: 0.188 µM
- ED50 [36]: 5160 nM
- ED50 [37]: 10.6 µM
- ED50 [38]: 2.44 mM
- ED50 [39]: 9.95 µM
- ED50 [40]: 4.27 µM
- ED50 [41]: 593 nM
- ED50 [42]: 366 nM
- ED50 [43]: 18.1 nM
